US9512459B2 (priority 2011, dated 2016)
Read-outs that look alike come from different tables or passages of the source.

Tests used:
[1] = target: Sclerotinia sclerotiorum glucose dehydrogenase (FAD-GDH) Ssc-n3 variant N191K/S529G, SEQ ID NO: 1 (Sclerotinia sclerotiorum, UniProt A7F9L2, N191K/S529G); conditions: 60 ml culture, crude enzyme; glucose 1-40 mM, pH 6.5, DCIP/PMS
Protocol: (§1) The transformant BL21 (DE3) expressing each mutated enzyme was precultured. The transformant was inoculated in an amount of 1% with respect to 60 ml of a medium A using a 300-ml baffled flask and shake-cultured under conditions involving 20° C., 28 hours, and 125 rpm. After collection of 50 ml of the medium, the bacterial cells were suspended by the addition of BugBuster (registered trademark) protein extraction reagent (Novagen/Merck KGaA) at a ratio of 5 ml per g of wet cells and incubated at room temperature for 15 minutes with gentle shaking. Insoluble fractions were removed by centrifugation (15 Krpm, 4° C., 20 minutes). Then, the obtained supernatant was dialyzed overnight at 4° C. against a 20 mM potassium phosphate buffer solution (pH 6.5). After the completion of the dialysis, the dialysate was centrifuged, and the supernatant was used as a crude enzyme preparation. Insoluble fractions were suspended in a 20 mM potassium phosphate buffer solution (pH 6.5) at a ratio of 1 ml per 2 ml of the suspension containing the insoluble fractions.
(§2) The GDH activity was measured in a DCIP (0.3 mM)/PMS (0.6 mM) system using a 20 mM potassium phosphate buffer solution (pH 6.5) as a buffer solution and glucose (Glc; 1, 2, 4, 10, 20, and 40 mM) and xylose (Xyl; 4 and 40 mM) as substrates.
(§3) The numeric values in the tables represent a mean of several data about specific activity (U/mg) and productivity (U/L) obtained under the same conditions with 40 mM glucose as a substrate. The obtained crude enzyme preparation was used to observe the correlation between the concentration of the substrate (glucose; 1, 2, 4, 10, 20, and 40 mM) and the activity. The obtained Michaelis-Menten constant (Km value) and apparent maximum activity (Vmax) were determined from a saturation curve determined therefrom.

[2] = target: Sclerotinia sclerotiorum glucose dehydrogenase (FAD-GDH) Ssc-n1 variant N191S, SEQ ID NO: 1 (Sclerotinia sclerotiorum, UniProt A7F9L2, N191S); conditions: 60 ml culture, crude enzyme; glucose 1-40 mM, pH 6.5, DCIP/PMS
Protocol: as §1, §2, §3

[3] = target: Sclerotinia sclerotiorum glucose dehydrogenase (FAD-GDH) Ssc-n1 variant N191K/S529G, SEQ ID NO: 1 (Sclerotinia sclerotiorum, UniProt A7F9L2, N191K/S529G); conditions: 60 ml culture, crude enzyme; glucose 1-40 mM, pH 6.5, DCIP/PMS
Protocol: as §1, §2, §3

[4] = target: Sclerotinia sclerotiorum glucose dehydrogenase (FAD-GDH) Ssc-n1 variant N191K, SEQ ID NO: 1 (Sclerotinia sclerotiorum, UniProt A7F9L2, N191K); conditions: 60 ml culture, crude enzyme; glucose 1-40 mM, pH 6.5, DCIP/PMS
Protocol: as §1, §2, §3

[5] = target: Sclerotinia sclerotiorum glucose dehydrogenase (FAD-GDH) Ssc-n2 variant N191S/S529G, SEQ ID NO: 1 (Sclerotinia sclerotiorum, UniProt A7F9L2, N191S/S529G); conditions: 60 ml culture, crude enzyme; glucose 1-40 mM, pH 6.5, DCIP/PMS
Protocol: as §1, §2, §3

[6] = target: Sclerotinia sclerotiorum glucose dehydrogenase (FAD-GDH) Ssc-n4 variant N191K/S529G, SEQ ID NO: 1 (Sclerotinia sclerotiorum, UniProt A7F9L2, N191K/S529G); conditions: 60 ml culture, crude enzyme; glucose 1-40 mM, pH 6.5, DCIP/PMS
Protocol: as §1, §2, §3

[7] = target: Sclerotinia sclerotiorum glucose dehydrogenase (FAD-GDH) Ssc-n2 variant N191K/S529G/G69A, SEQ ID NO: 1 (Sclerotinia sclerotiorum, UniProt A7F9L2, G69A/N191K/S529G); conditions: crude enzyme, glucose 1-40 mM, pH 6.5, DCIP/PMS
Protocol: as §1
(§4) A small-scale expression system was used for some multiple-mutated enzymes. The transformant BL21 (DE3) expressing each mutated enzyme was precultured, and the transformant was inoculated in an amount of 1 vol % with respect to 3 ml of a medium A. The bacterial cells were shake-cultured at 37° C. for 4 hours and then shake-cultured at 20° C. for 20 hours. After the culture, 2 ml of the medium was collected, then suspended by the addition of 400 μl of BugBuster (registered trademark), and then shaken at room temperature for 15 minutes. Then, the suspension was centrifuged (15000 rpm, 4° C., 20 minutes), and the obtained supernatant was used as a crude enzyme preparation.
as §2, §3

[8] = target: Sclerotinia sclerotiorum glucose dehydrogenase (FAD-GDH) Ssc-n2 variant N191K/S529G/G69N, SEQ ID NO: 1 (Sclerotinia sclerotiorum, UniProt A7F9L2, G69N/N191K/S529G); conditions: crude enzyme, glucose 1-40 mM, pH 6.5, DCIP/PMS
Protocol: as §1, §4, §2, §3

[9] = target: Sclerotinia sclerotiorum glucose dehydrogenase (FAD-GDH) Ssc-n2 variant N191K/S529G, SEQ ID NO: 1 (Sclerotinia sclerotiorum, UniProt A7F9L2, N191K/S529G); conditions: crude enzyme, glucose 1-40 mM, pH 6.5, DCIP/PMS
Protocol: as §1, §4, §2, §3

[10] = target: Sclerotinia sclerotiorum glucose dehydrogenase (FAD-GDH) Ssc-n2 variant N191K/S529G/Y70F, SEQ ID NO: 1 (Sclerotinia sclerotiorum, UniProt A7F9L2, N191K/S529G/Y70F); conditions: crude enzyme, glucose 1-40 mM, pH 6.5, DCIP/PMS
Protocol: as §1, §4, §2, §3

[11] = target: Sclerotinia sclerotiorum glucose dehydrogenase (FAD-GDH) Ssc-n2 variant N191K/S529G/G69H, SEQ ID NO: 1 (Sclerotinia sclerotiorum, UniProt A7F9L2, G69H/N191K/S529G); conditions: crude enzyme, glucose 1-40 mM, pH 6.5, DCIP/PMS
Protocol: as §1, §4, §2, §3

[12] = target: Sclerotinia sclerotiorum glucose dehydrogenase (FAD-GDH) Ssc-n1, wild type, SEQ ID NO: 1 (16 N-terminal residues deleted, Ser17 substituted by Met) (Sclerotinia sclerotiorum, UniProt A7F9L2); experiment: GDH activity vs glucose, saturation curve (Ssc-n1); assay type: biochemical; conditions: crude enzyme, glucose 1-40 mM, pH 6.5, DCIP/PMS
Protocol: as §1, §4, §2, §3

Work on `OC[C@H]1OC(O)[C@H](O)[C@@H](O)[C@@H]1O` (some centres unmarked) [glucose] yielded a Vmax [1] of 6.9 U/mg protein, a Vmax [2] of 3.7 U/mg protein and a Vmax [3] of 7.2 U/mg protein. It also gave a Vmax [4] of 1.6 U/mg protein, a Vmax [5] of 19.4 U/mg protein and a Vmax [6] of 9.2 U/mg protein. It also gave a Vmax ([7]; 3 ml culture) of 15.8 U/mg protein, a Vmax ([7]; 60 ml culture) of 26.4 U/mg protein and a Vmax ([8]; 3 ml culture) of 11.5 U/mg protein. For the same compound, the Vmax ([8]; 60 ml culture) was 13.9 U/mg protein, the Vmax ([9]; 3 ml culture) was 16.9 U/mg protein and the Vmax ([9]; 60 ml culture) was 38.2 U/mg protein. It also gave a Vmax ([10]; 3 ml culture) of 9.0 U/mg protein, a Vmax ([10]; 60 ml culture) of 23.8 U/mg protein and a Vmax ([11]; 3 ml culture) of 11.1 U/mg protein. The Vmax ([11]; 60 ml culture) was 6.9 U/mg protein, the Km ([12]; 3 ml culture) was 14.3 mM and the Vmax ([12]; 3 ml culture) was 2.2 U/mg protein. For the same compound, the Km ([12]; 60 ml culture) was 16.6 mM and the Vmax ([12]; 60 ml culture) was 0.7 U/mg protein.
